Target: T1, Glucocorticoid Receptor (GR), CHO-GRE-Luc #35 cells (Cricetulus griseus, UniProt A0A9J7F8I2)
T1 sequence (A0A9J7F8I2 1-774): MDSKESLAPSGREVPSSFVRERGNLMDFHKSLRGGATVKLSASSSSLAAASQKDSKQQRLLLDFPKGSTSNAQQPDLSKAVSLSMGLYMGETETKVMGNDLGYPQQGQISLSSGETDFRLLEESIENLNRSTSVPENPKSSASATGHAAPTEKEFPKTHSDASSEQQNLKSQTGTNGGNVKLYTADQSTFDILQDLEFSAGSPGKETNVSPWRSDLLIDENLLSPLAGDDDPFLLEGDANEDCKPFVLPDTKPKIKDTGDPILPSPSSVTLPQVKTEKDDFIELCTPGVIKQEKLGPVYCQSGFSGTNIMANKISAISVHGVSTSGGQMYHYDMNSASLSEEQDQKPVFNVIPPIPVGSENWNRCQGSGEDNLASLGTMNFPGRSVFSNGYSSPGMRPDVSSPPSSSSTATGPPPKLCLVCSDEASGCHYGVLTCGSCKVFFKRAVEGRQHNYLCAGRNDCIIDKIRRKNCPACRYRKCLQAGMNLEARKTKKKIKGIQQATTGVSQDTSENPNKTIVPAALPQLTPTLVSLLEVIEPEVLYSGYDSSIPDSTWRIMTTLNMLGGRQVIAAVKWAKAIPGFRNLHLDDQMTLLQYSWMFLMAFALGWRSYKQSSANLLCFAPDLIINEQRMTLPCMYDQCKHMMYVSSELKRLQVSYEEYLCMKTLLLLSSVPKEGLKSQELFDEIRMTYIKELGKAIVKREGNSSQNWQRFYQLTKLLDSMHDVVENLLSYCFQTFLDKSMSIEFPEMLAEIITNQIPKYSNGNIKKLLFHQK
Experiment: Glucocorticoid receptor function test using transgenic-recombinant cell (GRE-luciferase)
Type: cell-based
Details: against GR stimulation with 10 nM dexamethasone, luciferase, about 6 hr; read-out: GR (IC50: nM)
Protocol: Glucocorticoid Receptor Function Test Using Transgenic-Recombinant Cell
Transgenic-recombinant cell was prepared by our company (Yokohama, JP). In Hokkaido System Science Co., Ltd., a cis-element wherein two glucocorticoid responsive elements (GRE) present in the […] promoter region of mouse were connected in tandem was produced on order from synthetic DNA. The gene was incorporated into a plasmid vector having a gene encoding luciferase enzyme. The plasmid was incorporated into CHO-K1 cell to give a transfectant. The expression cell (CHO-GRE-Luc #35) produces luciferase instead of the object protein under regulation of a transcription region involved in the expression of the object protein. That is, using the cell, a substance that controls production of the object protein can be screened for by replacing the substance with the luciferase activity. Fetal Bovine Serum (FBS), L-glutamine, penicillin-streptomycin solution, PBS(−), trypsin-EDTA solution, Opti-MEM medium and G418 were obtained from GIBCO (Auckland, N.Z.). A 10 cm dish and DMEM:HAM′S F12 medium were obtained from IWAKI (Chiba, JP). A 96 well white plate was obtained from Corning (Corning, N.Y.). Bright-Glo was obtained from Promega (Madison, US). Dexamethasone was obtained from Sigma Chemicals (St. Louis, Mo.).
CHO-GRE-Luc #35 cells were cultured for several days in a 10 cm dish in a medium (10% FBS/DMEM:HAM'S F12/2.5 mM L-glutamine/50 U/mL penicillin/25 μg/mL streptomycin/500 μg/mL G418). Sub-confluent cells were washed with a suitable amount of PBS(−), 1 ml of Trypsin-EDTA was added and the cells were stood still in a CO2 incubator at 37° C. for 3 min. A 10-fold amount of Opti-MEM medium was added to give a suspension, which was placed in a centrifugal tube and centrifuged (25° C., 1,000 rpm, 5 min). The supernatant was removed, and the cells were suspended in 5 ml of Opti-MEM medium and counted.
Storage solutions (5-20 mM) of the compound were prepared with DMSO. The storage solutions were diluted with DMSO to 1 mM, and further diluted 100-fold with distilled water or Opti-MEM medium to give solutions. The preparations were diluted with 1% DMSO solution to each concentration. As GR agonist, 10 nM dexamethasone was used. 0.2% DMSO was present at the time of the function assay.
The prepared compound solutions (evaluation compound solution or 1% DMSO solution 10 μL+dexamethasone or 1% DMSO solution 10 μL) were added to the plate. After the addition, the place was stood still in a CO2 incubator at 37° C. for about 6 hr. After the reaction, Bright-Glo was added at 20 μL/well, and the mixture was gently shaken and measured by a microplate luminometer (Turner Designs Instrument).
The IC50 value (nM) of the evaluation compound against GR stimulation with dexamethasone was calculated using Prism 3.0 as an analysis software and assuming one-site competition.

| SMILES | IC50 |
| --- | --- |
| CC1(C)Nc2c(cc(-c3ccnc4ncccc34)c3occc23)C(C)(C)C1=O [Example 102, 2,2,4,4-tetramethyl-6-([1,8]naphthyridin-4-yl)-1,2,3,4-tetrahydro-furo[2,3-h]quinolin-3-one] | 35 nM |
| Cc1noc(C)c1-c1cc2c(c3c1C(=O)CC3)NC(C)(C)C(=O)C2(C)C [Example 104, 6-(3,5-dimethylisoxazol-4-yl)-2,2,4,4-tetramethyl-2,3,4,7,8,9-hexahydro-1H-cyclopenta[h]quinoline-3,7-dione] | 128 nM |
